Here are results for 1 compound from ChEMBL document CHEMBL1137013, “Discovery of (2R)-2-(3-{3-[(4-Methoxyphenyl)carbonyl]-2-methyl-6-(trifluoromethoxy)-1H-indol-1-yl}phenoxy)butanoic acid (MK-0533): a novel selective peroxisome proliferator-activated receptor gamma modulator for the treatment of type 2 diabetes mellitus with a reduced potential to increase plasma …” (J Med Chem, 2009).

Structures are written as SMILES. The source made the active and inactive calls. No cut-off for these calls is given here.

The target in series [1] is T1, Peroxisome proliferator-activated receptor alpha (Homo sapiens, UniProt Q07869).
T1 sequence (Q07869 whole entry): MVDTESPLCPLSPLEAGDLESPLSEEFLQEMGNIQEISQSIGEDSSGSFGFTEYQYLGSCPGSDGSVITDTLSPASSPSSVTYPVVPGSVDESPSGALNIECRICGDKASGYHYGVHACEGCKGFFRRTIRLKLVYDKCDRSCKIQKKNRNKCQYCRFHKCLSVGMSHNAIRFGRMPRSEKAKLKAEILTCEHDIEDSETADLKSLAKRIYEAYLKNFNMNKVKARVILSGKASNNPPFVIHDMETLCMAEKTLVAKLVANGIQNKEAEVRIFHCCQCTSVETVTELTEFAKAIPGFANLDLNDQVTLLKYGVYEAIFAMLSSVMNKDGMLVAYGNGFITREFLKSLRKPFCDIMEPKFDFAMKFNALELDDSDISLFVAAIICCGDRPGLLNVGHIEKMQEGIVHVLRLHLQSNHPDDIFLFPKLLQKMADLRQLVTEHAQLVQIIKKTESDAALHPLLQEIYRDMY
Description: Displacement of [3H2]nTZD3 from human recombinant GST-fused PPARalpha expressed in Escherichia coli by scintillation proximity assay. Background: Scintillation proximity formats need no separation of bound from free tracer.

Series [2] is described as follows: Oral bioavailability in rat. It counts as ADME, organism-based. The note with it: in vivo.
Series [3] in a line: Plasma clearance in rat. It counts as ADME, organism-based.
Series [4] can be described thus: Agonist activity at hamster PPARalpha. It counts as functional, Cricetinae. The note with it: read-out: EC50.
For series [5], the target named is T2, Peroxisome proliferator-activated receptor alpha (Canis lupus familiaris) (UniProt Q95N78).
T2 sequence (whole entry): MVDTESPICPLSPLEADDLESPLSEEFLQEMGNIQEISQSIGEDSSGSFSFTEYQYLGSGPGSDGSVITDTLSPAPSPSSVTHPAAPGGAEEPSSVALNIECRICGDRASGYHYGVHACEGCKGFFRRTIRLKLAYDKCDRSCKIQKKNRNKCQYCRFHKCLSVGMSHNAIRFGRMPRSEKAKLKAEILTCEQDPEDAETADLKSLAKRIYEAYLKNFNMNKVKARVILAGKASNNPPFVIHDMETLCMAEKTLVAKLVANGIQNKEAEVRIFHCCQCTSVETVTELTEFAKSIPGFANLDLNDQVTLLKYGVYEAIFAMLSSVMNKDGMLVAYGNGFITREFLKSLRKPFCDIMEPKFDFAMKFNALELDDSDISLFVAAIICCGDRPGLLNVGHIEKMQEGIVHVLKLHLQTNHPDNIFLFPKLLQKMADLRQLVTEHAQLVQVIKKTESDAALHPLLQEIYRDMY
As to the kind of experiment: Agonist activity at dog PPARalpha at 3000 nM. It counts as functional.

Series [6] in a line: AUC in db/db mouse at 30 mg/kg, po administered once daily for 11 days. The note with it: plasma. On the set-up: dose 30 mg/kg, route oral. It counts as ADME, organism-based.
Series [7] deals with Rattus norvegicus. Description: Toxicity in Sprague-Dawley rat assessed as heart weight at 300 mg/kg dosed daily for 2 weeks. It is filed as organism-based. On the set-up: dose 300 mg/kg. The conditions noted are these: in vivo, 336 h.
The target in series [8] is T3, Peroxisome proliferator-activated receptor delta (Homo sapiens) (UniProt Q03181).
T3 sequence (whole entry): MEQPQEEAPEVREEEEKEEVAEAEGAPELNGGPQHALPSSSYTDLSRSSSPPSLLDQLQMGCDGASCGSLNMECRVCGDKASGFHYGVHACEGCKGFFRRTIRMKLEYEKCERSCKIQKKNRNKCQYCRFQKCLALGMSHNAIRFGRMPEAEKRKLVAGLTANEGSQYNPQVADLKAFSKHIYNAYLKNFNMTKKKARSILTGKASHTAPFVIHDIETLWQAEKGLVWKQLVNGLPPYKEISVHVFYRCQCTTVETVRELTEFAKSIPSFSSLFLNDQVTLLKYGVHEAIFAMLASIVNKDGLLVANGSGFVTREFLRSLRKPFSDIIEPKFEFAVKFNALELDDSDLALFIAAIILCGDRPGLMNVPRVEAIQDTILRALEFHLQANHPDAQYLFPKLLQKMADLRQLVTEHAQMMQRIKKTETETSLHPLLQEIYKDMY
As to the kind of experiment: Displacement of [3H2]nTZD4 from human recombinant GST-fused PPARdelta expressed in Escherichia coli at 10 uM by scintillation proximity assay.

Series [9] in a line: AUC in Sprague-Dawley rat at 300 mg/kg dosed daily for 2 weeks. It counts as ADME, organism-based. On the set-up: dose 300 mg/kg. The note with it: plasma.
A short description of series [10]: Terminal half life in monkey. It is filed as ADME, organism-based, Macaca mulatta. The note with it: rhesus monkey, in vivo; read-out: beta t1/2 (converted).
Series [11] is described as follows: Volume of distribution at steady state in monkey. It counts as ADME, organism-based, Macaca mulatta. The note with it: rhesus monkey, in vivo; read-out: Vdss.
Series [12] in a line: AUC in obese insulin-resistant Zucker fa/fa rat at 100 mg/kg, po once daily for 7 days. It is filed as ADME, organism-based. On the set-up: dose 100 mg/kg, route oral. The note with it: plasma.
For another series, the system named is Plasma. As to the kind of experiment: Protein binding in rat plasma assessed per mg of protein. It is filed as ADME, cell-free.
Series [13] has as its target T4, Peroxisome proliferator-activated receptor gamma (Homo sapiens, UniProt P37231).
T4 sequence (P37231 whole entry): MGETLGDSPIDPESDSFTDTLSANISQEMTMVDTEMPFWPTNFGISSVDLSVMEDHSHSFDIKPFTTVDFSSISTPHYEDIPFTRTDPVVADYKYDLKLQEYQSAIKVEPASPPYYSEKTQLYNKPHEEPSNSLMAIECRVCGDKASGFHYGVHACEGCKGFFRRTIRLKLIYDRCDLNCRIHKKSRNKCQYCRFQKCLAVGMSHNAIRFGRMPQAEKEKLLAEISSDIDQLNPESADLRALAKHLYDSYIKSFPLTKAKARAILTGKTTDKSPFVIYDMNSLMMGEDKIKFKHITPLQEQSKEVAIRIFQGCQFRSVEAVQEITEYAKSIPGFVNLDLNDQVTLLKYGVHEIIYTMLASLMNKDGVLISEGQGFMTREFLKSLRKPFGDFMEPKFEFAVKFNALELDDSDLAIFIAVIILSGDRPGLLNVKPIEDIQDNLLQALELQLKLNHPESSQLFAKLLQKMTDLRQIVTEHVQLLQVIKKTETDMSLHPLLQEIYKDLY
Description: Agonist activity at human recombinant PPARgamma expressed in COS1 cells co-expressing GAL4 assessed as transcriptional activity after 48 hrs by luciferase reporter gene assay

Series [14] relates to Rattus norvegicus. As to the kind of experiment: Toxicity in Sprague-Dawley rat assessed as brown adipose tissue weight at 300 mg/kg dosed daily for 2 weeks. On the set-up: dose 300 mg/kg. The note with it: in vivo, 336 h. It counts as organism-based.
Series [15] is described as follows: AUC in obese insulin-resistant Zucker fa/fa rat at 30 mg/kg, po once daily for 7 days. The note with it: plasma. It is filed as ADME, organism-based. On the set-up: dose 30 mg/kg, route oral.
A short description of series [16]: Terminal half life in rat. It is filed as ADME, organism-based. The note with it: in vivo, read-out: beta t1/2 (converted).
The nature of series [17]: Cmax in dog. The note with it: in vivo. It counts as ADME, organism-based, Canis lupus familiaris.
The nature of series [18]: Oral bioavailability in dog. It counts as ADME, organism-based, Canis lupus familiaris. The conditions noted are these: in vivo.
A further series concerns Liver microsomes. Description: Protein binding in rat liver microsomes assessed per mg of protein. It counts as ADME, Microsome. A general note: Liver microsomes are vesicles of endoplasmic reticulum, rich in cytochrome P450 enzymes.
Series [19] can be described thus: Volume of distribution at steady state in dog. It counts as ADME, organism-based, Canis lupus familiaris. The note with it: in vivo, read-out: Vdss.
Series [20] has as its target T5, Peroxisome proliferator-activated receptor alpha (Homo sapiens) (UniProt Q07869).
T5 sequence (whole entry): T1 sequence (Q07869 whole entry)
As to the kind of experiment: Agonist activity at human recombinant PPARalpha expressed in COS1 cells coexpressing GAL4 assessed as transcriptional activity at 3000 nM after 48 hrs by luciferase reporter gene assay. It counts as functional, cell-based. The conditions noted are these: COS-1.

The test system of series [21] is Rattus norvegicus. Description: Toxicity in obese insulin-resistant Zucker fa/fa rat assessed as increase in plasma volume at 30 mg/kg, po once daily for 7 days by Evans blue dye dilution technique. It counts as organism-based. On the set-up: dose 30 mg/kg, route oral. The note with it: in vivo, 168 h.

The term IC50 denotes the concentration that gives 50% inhibition. For orientation: bioavailability means the share of a dose that reaches the circulation, judged against a reference dose that is usually intravenous. For orientation: clearance means the rate of elimination divided by the concentration. The term EC50 denotes the concentration that produces a half-maximal response. The term Cmax denotes the peak of the concentration-time curve. For `CC[C@@H](Oc1cccc(-n2c(C)c(C(=O)c3ccc(OC)cc3)c3ccc(OC(F)(F)F)cc32)c1)C(=O)O` [MK-0533], the IC50 in [1] was over 50000 nM. In addition, the bioavailability turned out to be 81% in series [2] and 59% in series [18]. This compound also had a clearance in [3] of 18.3 mL/min/kg. For the same compound, the EC50 in series [4] was determined as 330 nM; in series [13], 2 nM. Also, the Activity in series [5] is 35%; in the series on Rattus norvegicus [7] it was 1.1 g; in the series with Rattus norvegicus [14], 537 mg; in series [20], 33%; with Rattus norvegicus [21], “Non-toxic”. Besides, the AUC at 264 h in [6] is 60 µM·h. In addition, the outcome in series [8] was inactive. In series [9], this compound yielded an AUC at 336 h of 954 µM·h. Besides, the values for the half-life in [10] and in series [16] were 3.2 h and 1.6 h, respectively. Moreover, the Vd came out at 0.7 L/kg in [11] and 1.4 L/kg in [19]. Further, the values for the AUC at 168 h in series [12] and in series [15] were 1480 µM·h and 115 µM·h, respectively. In addition, the PPB with Plasma is listed as under 10 pmol. For the same compound, the Cmax in series [17] worked out at 2400 nM. In the series on Liver microsomes, this compound came in with a PB of under 10 pmol.
